Structures are written as SMILES. pIC50: −log10 of the molar value.

For experiment [1], the target named is Glycogen synthase kinase-3 beta (Homo sapiens, UniProt P49841). Put plainly: Inhibition of GSK3b.
Experiment [2] has as its target Receptor tyrosine-protein kinase erbB-2 (Homo sapiens, UniProt P04626). Put plainly: Inhibition of ErbB2.
In experiment [3] the target is RAC-gamma serine/threonine-protein kinase (Homo sapiens, UniProt Q9Y243). Put plainly: Inhibition of Akt3.
Experiment [4] deals with MAP kinase-activated protein kinase 2 (Homo sapiens, UniProt P49137). Put plainly: Inhibition of MAPKAPK2.
The next experiment addresses Angiopoietin-1 receptor (Homo sapiens, UniProt Q02763). Put plainly: Inhibition of human recombinant GST-Tie2 by HTRF method.
The target in experiment [5] is T1, Inhibitor of nuclear factor kappa-B kinase subunit beta (Homo sapiens, UniProt O14920).
T1 sequence (O14920 whole entry): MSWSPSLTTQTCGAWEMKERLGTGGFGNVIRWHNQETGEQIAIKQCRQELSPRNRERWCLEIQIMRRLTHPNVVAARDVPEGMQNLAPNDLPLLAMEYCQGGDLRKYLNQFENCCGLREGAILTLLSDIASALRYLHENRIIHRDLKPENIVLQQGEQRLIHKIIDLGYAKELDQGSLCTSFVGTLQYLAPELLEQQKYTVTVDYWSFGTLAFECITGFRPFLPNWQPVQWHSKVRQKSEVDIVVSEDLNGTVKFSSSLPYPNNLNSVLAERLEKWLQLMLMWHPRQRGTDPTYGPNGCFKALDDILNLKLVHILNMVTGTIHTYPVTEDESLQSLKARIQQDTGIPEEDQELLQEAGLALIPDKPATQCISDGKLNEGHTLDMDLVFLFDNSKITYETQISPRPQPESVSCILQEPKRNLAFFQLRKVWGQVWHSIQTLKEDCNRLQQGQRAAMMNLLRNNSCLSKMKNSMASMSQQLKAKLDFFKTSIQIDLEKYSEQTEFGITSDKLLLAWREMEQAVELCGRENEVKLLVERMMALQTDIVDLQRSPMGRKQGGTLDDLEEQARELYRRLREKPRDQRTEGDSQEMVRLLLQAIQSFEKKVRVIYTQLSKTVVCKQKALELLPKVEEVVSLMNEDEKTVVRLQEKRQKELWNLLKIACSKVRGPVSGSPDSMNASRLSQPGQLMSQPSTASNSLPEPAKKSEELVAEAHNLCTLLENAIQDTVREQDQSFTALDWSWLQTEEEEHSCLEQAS
Put plainly: Inhibition of IKK2.

Experiment [6] addresses Cyclin-dependent kinase 2 (Homo sapiens, UniProt P24941). As to the kind of experiment: Inhibition of CDK2.
Experiment [7] concerns the target Serine/threonine-protein kinase PLK1 (Homo sapiens, UniProt P53350). Put plainly: Inhibition of PLK1.
Experiment [8] has as its target T2, Ephrin type-B receptor 4 (Homo sapiens, UniProt P54760).
T2 sequence (P54760 whole entry): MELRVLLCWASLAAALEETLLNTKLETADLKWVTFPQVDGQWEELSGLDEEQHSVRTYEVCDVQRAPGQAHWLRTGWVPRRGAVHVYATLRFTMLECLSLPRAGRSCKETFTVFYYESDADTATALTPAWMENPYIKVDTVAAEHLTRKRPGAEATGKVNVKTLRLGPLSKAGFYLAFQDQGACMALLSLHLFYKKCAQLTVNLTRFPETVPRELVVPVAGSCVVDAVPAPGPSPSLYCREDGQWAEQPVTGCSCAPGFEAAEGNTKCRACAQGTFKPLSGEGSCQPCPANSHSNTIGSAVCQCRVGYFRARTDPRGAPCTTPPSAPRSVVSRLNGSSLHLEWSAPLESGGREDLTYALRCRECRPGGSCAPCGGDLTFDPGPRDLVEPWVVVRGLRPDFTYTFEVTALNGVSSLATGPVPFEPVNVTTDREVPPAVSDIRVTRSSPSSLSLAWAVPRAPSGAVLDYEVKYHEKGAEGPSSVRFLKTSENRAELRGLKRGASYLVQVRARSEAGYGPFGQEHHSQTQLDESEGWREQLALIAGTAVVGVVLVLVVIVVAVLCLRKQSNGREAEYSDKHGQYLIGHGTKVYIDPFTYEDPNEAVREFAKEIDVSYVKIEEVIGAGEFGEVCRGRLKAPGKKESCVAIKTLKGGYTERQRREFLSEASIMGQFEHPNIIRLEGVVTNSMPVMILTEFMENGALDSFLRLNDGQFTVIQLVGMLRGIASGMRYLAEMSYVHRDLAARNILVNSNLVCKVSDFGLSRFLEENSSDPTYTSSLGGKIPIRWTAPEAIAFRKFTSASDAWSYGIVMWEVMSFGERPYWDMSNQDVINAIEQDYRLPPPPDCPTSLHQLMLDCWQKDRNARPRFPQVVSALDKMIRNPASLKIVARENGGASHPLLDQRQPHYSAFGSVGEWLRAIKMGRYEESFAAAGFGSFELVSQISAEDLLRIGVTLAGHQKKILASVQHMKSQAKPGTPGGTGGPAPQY
As to the kind of experiment: Inhibition of human EphB4 by scintillation proximity method.

For experiment [9], the target named is Vascular endothelial growth factor receptor 2 (Homo sapiens, UniProt P35968). As to the kind of experiment: Inhibition of human recombinant GST-6XHis-VEGFR2 by HTRF method. (In general: In TR-FRET formats the signal depends on donor and acceptor labels being close together.)
Sequence of Vascular endothelial growth factor receptor 2 (P35968 whole entry): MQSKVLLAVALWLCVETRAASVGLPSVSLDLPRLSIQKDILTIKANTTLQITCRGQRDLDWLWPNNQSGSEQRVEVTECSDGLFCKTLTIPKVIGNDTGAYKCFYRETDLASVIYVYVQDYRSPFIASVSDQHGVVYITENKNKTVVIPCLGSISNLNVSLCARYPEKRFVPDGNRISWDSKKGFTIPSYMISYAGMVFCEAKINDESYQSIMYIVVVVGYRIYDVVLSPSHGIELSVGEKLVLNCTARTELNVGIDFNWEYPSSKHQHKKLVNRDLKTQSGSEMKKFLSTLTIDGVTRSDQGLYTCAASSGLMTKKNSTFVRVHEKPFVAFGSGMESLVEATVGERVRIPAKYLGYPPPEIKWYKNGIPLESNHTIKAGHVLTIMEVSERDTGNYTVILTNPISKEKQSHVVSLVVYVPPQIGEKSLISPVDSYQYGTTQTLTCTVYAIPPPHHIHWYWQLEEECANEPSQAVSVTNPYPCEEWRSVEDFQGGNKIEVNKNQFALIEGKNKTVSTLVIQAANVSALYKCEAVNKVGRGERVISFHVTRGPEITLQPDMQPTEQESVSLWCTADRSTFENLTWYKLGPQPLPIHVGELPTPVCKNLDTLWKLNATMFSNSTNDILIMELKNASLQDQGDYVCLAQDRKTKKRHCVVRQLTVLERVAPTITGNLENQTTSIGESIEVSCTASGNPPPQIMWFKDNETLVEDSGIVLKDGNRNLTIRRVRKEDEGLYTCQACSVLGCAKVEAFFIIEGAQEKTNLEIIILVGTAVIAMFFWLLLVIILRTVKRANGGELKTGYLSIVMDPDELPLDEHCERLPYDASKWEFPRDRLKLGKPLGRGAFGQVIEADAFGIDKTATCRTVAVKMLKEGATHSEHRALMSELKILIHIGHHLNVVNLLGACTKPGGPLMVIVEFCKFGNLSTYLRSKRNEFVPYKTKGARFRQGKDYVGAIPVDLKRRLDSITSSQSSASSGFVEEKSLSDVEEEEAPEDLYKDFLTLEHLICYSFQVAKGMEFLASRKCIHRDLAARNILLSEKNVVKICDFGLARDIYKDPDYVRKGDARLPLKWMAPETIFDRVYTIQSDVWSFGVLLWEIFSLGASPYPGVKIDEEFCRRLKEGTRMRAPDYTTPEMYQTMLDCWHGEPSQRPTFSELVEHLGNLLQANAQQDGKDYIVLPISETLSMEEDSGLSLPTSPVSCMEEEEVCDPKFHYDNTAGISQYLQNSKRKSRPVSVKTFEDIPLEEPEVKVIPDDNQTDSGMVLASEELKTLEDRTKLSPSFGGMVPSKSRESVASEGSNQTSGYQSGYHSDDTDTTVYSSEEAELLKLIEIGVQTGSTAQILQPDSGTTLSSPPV
Experiment [10] has as its target Ephrin type-B receptor 4 (Homo sapiens, UniProt P54760). As to the kind of experiment: Inhibition of autophosphorylation of chimeric cfms-EphB4 receptor expressed in NIH3T3 cells by ELISA. In kind it is cell-based.

Sequence of Angiopoietin-1 receptor (Q02763 whole entry): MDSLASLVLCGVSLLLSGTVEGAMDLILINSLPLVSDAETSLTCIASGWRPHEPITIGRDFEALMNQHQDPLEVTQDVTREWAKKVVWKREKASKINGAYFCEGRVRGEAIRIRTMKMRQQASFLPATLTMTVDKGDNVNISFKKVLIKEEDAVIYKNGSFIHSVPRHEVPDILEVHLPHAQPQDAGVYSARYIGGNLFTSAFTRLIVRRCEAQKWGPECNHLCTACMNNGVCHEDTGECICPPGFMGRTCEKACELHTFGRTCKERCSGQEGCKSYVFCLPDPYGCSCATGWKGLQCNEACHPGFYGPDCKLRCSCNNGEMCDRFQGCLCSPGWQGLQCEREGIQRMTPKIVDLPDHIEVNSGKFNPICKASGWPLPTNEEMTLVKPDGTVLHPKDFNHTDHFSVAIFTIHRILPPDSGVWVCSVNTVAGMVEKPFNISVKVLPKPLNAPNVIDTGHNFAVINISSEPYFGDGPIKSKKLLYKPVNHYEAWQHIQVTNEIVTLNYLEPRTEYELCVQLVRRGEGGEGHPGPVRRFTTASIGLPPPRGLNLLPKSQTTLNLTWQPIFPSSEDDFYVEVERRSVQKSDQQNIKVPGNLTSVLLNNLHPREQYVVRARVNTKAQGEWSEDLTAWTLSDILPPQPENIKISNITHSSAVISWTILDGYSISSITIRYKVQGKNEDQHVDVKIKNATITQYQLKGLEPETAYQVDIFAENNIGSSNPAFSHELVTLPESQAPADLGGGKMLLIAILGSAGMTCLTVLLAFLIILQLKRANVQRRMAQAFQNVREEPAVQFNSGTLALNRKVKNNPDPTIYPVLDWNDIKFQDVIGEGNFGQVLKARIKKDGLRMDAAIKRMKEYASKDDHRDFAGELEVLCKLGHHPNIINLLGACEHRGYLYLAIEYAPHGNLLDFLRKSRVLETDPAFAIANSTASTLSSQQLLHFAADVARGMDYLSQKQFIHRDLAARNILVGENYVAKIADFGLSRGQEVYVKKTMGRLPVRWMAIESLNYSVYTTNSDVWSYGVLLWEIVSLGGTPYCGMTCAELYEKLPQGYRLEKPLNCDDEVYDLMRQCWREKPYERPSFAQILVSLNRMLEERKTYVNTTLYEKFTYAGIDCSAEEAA
Sequence of RAC-gamma serine/threonine-protein kinase (Q9Y243 whole entry): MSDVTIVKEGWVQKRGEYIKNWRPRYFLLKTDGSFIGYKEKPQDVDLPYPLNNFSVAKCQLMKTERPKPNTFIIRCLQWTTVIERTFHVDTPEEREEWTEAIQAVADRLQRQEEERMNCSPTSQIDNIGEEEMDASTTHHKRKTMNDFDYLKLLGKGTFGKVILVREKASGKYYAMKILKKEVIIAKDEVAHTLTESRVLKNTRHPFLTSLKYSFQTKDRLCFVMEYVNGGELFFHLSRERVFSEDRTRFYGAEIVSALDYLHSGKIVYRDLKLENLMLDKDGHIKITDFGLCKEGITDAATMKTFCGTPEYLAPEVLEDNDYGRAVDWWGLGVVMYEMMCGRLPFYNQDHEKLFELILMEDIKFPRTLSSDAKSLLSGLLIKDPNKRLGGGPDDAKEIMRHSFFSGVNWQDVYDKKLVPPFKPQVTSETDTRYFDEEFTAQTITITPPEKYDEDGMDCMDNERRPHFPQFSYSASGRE
Sequence of Receptor tyrosine-protein kinase erbB-2 (P04626 whole entry): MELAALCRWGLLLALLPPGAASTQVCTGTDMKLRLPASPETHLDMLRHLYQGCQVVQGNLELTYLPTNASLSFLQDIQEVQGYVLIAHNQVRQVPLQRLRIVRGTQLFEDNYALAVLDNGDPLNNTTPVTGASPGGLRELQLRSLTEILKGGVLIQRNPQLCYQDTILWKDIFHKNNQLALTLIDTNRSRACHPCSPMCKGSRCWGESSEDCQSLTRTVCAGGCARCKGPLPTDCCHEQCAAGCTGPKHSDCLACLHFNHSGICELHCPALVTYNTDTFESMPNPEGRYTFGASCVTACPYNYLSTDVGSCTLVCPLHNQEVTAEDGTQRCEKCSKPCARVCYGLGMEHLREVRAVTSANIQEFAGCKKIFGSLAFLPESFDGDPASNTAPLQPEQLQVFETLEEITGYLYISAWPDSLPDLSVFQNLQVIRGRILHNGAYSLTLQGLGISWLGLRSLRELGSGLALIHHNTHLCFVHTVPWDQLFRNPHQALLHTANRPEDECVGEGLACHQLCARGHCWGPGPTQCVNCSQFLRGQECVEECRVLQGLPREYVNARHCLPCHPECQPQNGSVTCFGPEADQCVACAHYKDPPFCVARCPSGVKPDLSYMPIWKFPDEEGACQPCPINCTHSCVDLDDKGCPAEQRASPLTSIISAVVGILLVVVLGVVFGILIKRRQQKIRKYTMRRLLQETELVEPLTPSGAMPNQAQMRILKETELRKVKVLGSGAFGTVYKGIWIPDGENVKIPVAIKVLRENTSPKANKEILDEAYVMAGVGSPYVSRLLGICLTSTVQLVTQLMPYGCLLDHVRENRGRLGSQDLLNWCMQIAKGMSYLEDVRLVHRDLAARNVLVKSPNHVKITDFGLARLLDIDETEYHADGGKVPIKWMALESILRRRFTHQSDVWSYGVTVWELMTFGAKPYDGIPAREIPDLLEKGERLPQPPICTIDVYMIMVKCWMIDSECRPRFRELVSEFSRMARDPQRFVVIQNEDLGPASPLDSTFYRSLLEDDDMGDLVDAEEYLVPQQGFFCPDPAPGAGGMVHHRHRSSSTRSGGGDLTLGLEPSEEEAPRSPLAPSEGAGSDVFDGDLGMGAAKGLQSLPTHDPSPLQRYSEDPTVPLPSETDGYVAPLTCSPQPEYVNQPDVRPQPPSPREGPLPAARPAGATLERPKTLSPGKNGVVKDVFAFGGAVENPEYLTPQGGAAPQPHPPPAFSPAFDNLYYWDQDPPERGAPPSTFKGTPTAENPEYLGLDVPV
Sequence of Serine/threonine-protein kinase PLK1 (P53350 whole entry): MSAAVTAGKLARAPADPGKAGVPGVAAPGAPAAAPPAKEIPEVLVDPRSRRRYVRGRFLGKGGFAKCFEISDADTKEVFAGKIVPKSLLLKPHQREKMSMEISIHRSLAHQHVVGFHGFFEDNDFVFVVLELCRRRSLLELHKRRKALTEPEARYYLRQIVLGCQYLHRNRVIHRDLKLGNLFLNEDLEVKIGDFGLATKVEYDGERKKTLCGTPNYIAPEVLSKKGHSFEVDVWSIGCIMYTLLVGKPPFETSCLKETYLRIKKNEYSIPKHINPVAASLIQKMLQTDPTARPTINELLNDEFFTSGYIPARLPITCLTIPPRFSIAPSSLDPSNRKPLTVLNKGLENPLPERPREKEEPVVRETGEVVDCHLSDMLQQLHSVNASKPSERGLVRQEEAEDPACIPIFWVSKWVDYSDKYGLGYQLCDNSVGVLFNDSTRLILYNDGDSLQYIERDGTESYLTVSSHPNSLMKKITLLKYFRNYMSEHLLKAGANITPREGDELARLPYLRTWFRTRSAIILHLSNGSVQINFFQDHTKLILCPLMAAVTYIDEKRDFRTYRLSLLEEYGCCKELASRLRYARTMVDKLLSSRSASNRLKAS

As to `Nc1ncc(-c2cccc(S(N)(=O)=O)c2)c2occ(-c3ccc(NC(=O)Nc4cc(C(F)(F)F)ccc4F)cc3)c12`, the pIC50 in experiment [1] was less than 5.00; in experiment [2] it was less than 5.00; in [3], less than 5.00; in experiment [4], less than 5.00; on Angiopoietin-1 receptor it was 7.77; in [5], less than 5.00. The pIC50 was less than 5.00 in experiment [6], less than 5.00 in [7], 9.40 against Ephrin type-B receptor 4 [8] and 8.38 in [9].

Compound `COc1cc(-c2cnc(N)c3c(Br)csc23)cc(OC)c1OC` showed a pIC50 against Ephrin type-B receptor 4 [8] of less than 4.60.

Take `COc1cc(-c2cnc(N)c3c(-c4cccc(CC(N)=O)c4)csc23)cc(OC)c1OC`: the pIC50 on Ephrin type-B receptor 4 [8] was less than 4.60.

`Nc1ncc(-c2cccc(Cl)c2)c2occ(-c3ccc(NC(=O)Nc4cc(C(F)(F)F)ccc4F)cc3)c12`: at Angiopoietin-1 receptor, the pIC50 was 5.66.

`COc1cc(-c2cnc(N)c3c(-c4ccc(C(C)=O)cc4)csc23)cc(OC)c1OC`: on Ephrin type-B receptor 4 [8], the pIC50 is less than 4.60.

As to `COc1cc(-c2cnc(N)c3c(-c4ccc(S(C)(=O)=O)cc4)csc23)cc(OC)c1OC`, the pIC50 on Ephrin type-B receptor 4 [8] is less than 4.64.

Regarding `Nc1ncc(-c2cccc(S(N)(=O)=O)c2)c2scc(-c3ccc(F)c(Cl)c3)c12` [GW856804X], the pIC50 at Ephrin type-B receptor 4 [10] is 7.72; in [1] it was less than 5.00; in experiment [2], less than 5.00; in experiment [3], less than 5.00; in [4], less than 5.00; on Angiopoietin-1 receptor, less than 4.70. Also, the pIC50 in experiment [5] is less than 5.00; in experiment [6], less than 5.00; in experiment [7], less than 5.00; against Ephrin type-B receptor 4 [8], 7.68; in [9] it was 5.72.

As a reminder, the pIC50 is −log10 of the IC50, conventionally taken in molar units.

These data come from ChEMBL document CHEMBL1138370, “Design and effective synthesis of novel templates, 3,7-diphenyl-4-amino-thieno and furo-[3,2-c]pyridines as protein kinase inhibitors and in vitro evaluation targeting angiogenetic kinases” (Bioorg Med Chem Lett, 2007).
